Test results taken from PMC12291837, “Elephant Cathelicidin-Derived Peptides Inhibit Herpes Simplex Virus 1 Infection” (Antibiotics, 2025).
Where no end group is shown, it is not given here.

Experiments:
HSV-1 [1] = experiment: microbe, parasite or virus in culture; format: cell-based, Herpes simplex virus type 1 (HSV-1 17 + strain); conditions: U251 cells
Protocol: (§1) Human glioma cells (U251) were maintained in Dulbecco’s Modified Eagle Medium (DMEM; Gibco, Waltham, MA, USA) supplemented with 10% heat-inactivated fetal bovine serum (FBS; ExCell), 100 U/mL penicillin, and 100 µg/mL streptomycin. Serum inactivation was performed at 56 °C for 30 min prior to medium supplementation. Cell cultures were incubated at 37 °C under 5% CO2 atmosphere. The HSV-1 17 + strain utilized in this study was maintained under laboratory preservation conditions.
U251 cells were seeded into 12-well plates at a density of 2 × 10^5 cells per well and incubated for 12 h. […] Following treatment, the total DNA was extracted by using DNA isolation mini kit (Vazyme, Nanjing, China) under the manufacturer’s instructions.
Total RNA was extracted using TRIzol reagent (Invitrogen, Carlsbad, CA, USA). One microgram of RNA was reverse-transcribed into cDNA by using a reverse transcription kit (Vazyme, China). Diluted gDNA and cDNAs were subjected to qPCR analysis using ChamQ Universal SYBR qPCR Master Mix (Vazyme, China) with the following parameters: 95 °C for 30 s, followed by 40 cycles of 95 °C for 5 s and 60 °C for 30 s, followed by melting curve analysis. Primers for qPCR were synthesized by Sangon Biotech (Shanghai, China) (Appendix A Table A2). The qPCR data were analyzed using the 2^−ΔΔCt method.

HSV-1 [2] = experiment: HSV-1 footpad inoculation mouse model, viral load (UL30 gene copies) and lung H&E histology; format: in vivo; conditions: C57BL/6J mice, 10 mg/kg i.p. once daily for 5 days
Protocol: Female C57BL/6J mice, aged 6–8 weeks, were purchased from Beijing Vital River Laboratory Animal Technology Co., Ltd. (Beijing, China). […] Except for the vehicle control group, mice in the other groups were subplantarly infected with HSV-1 at a dose of 1.0 × 10^6 PFU per mouse. […] The vehicle control and virus control groups received an equivalent volume of phosphate-buffered saline (PBS). Mice were euthanized 24 h after the last administration, and tissue samples were collected. Body weight was measured daily at a fixed time during the treatment period to generate weight change curves.
Tissues were homogenized using a tissue grinder and total DNA was extracted from homogenate supernatants using a DNA isolation mini kit (Vazyme, China) under the manufacturer’s instructions. To establish a standard curve for real-time quantitative PCR (qPCR), the UL30 gene was used as the target sequence, and a recombinant plasmid containing this gene was constructed. In brief, the UL30 gene was cloned into the pMD19-T vector and transformed into DH5α. After verification by colony PCR and sequencing, high-purity plasmid DNA was extracted, and its concentration was measured using Nanodrop and converted into copy numbers (copies/μL). Then a 10-fold serial dilution (10^1–10^8 copies/μL) was prepared to generate the standard curve. Using the extracted DNA as a template, UL30 gene copy numbers were quantified in mouse tissues through qPCR with UL30 specific primers.
Tissues were fixed in 4% paraformaldehyde for 72 h and subsequently processed by Servicebio Biotechnology Co., Ltd. (Wuhan, China) for paraffin embedding, pathological sectioning, and hematoxylin eosin (H&E) staining.

U251 cells = experiment: Cytotoxicity assay (CCK-8) on U251 cells; format: cell-based, Human; conditions: 24 h
Protocol: as §1
Cell viability was evaluated by using cell counting kit-8 reagent (CCK-8, Biosharp, Shanghai, China) according to the manufacturer’s protocol. Briefly, U251 cells were seeded in 96-well culture plates and cultured for 12 h at 37 °C. The cells were then treated with or without peptides for 24 h. After that, 10 μL of the CCK-8 reaction mixture were added to each well and incubated at 37 °C for 0.5–4 h. The absorbance of each well was measured at 450 nm with a SpectraMax M2e Multi-Mode Microplate Reader (Molecular Devices, USA). The formula for calculating cell viability is as follows:
Cell viability (%) = (average OD of treated sample-average OD of vehicle sample)/(average OD of cell sample-average OD of vehicle sample) × 100%

Q: For `Nc1nc2c(ncn2COCCO)c(=O)[nH]1` [ACV, Acyclovir], which IC50 (HSV-1 [1]; Human alphaherpesvirus 1, U-251, HSV-1 MOI = 0.1, co-treatment 24 h, qPCR of UL30 DNA, mean ± SEM of three independent experiments, read-out: IC50 against HSV-1) is on record?
A: The IC50 was 17.6 ± 5.75 µM.

Q: And the “Lung tissue viral load (HSV-1 UL30 gene copies)” value (HSV-1 [2]; HSV-1 footpad 1.0 × 10^6 PFU, day 5 post-infection, n = 5, HSV-1 control 7.02 ± 0.57)?
A: The value was 6.01 ± 0.13 log10 copies/μL.

Q: And the “Heart tissue viral load versus HSV-1 control group” value (HSV-1 [2]; HSV-1 footpad, n = 5, HSV-1 control 7.78 ± 0.41 log10 copies/μL)?
A: Its value is “neither the EM-1 nor the ACV treatment group showed a significant difference”.

Q: And the “Lung histopathology (H&E staining)” value (HSV-1 [2]; HSV-1 footpad, compared with HSV-1 control group)?
A: Its value is “preserved normal alveolar architecture”.

Q: For RRIRGLRKFFRKSKEKLKKV-NH2 [EM-1], which “CC50 (median cytotoxic concentration)” value (U251 cells) is on record?
A: Its value is 214.55 ± 36.25 µM.

Q: How did the “Cytotoxic effect on U251 cells (cell viability)” value (U251 cells; U251 cells, CCK-8, 5 μM and 10 μM, compared to peptide EM, EM-3 and EM-4) turn out when “GRRVKGFFRDVLRRVPYLPGPR-NH2 [EM-2, modified peptide derived from Elephas maximus cathelicidin EM]” was run?
A: Its value is “significantly lower toxicity”.

Q: And the “Relative DNA levels of HSV-1 UL30” value (HSV-1 [1]; HSV-1 MOI = 0.1, 24 h, 10 μM peptide, versus virus control group, p < 0.001)?
A: The value was “marked suppression of HSV-1 activity”.
